pIC50: −log10 of the molar value. A value given as a limit tells only on which side of the number the result lay.

Here are results for six compounds from US11912710B2 (UPPTHERA, INC., priority 2021, dated 2024).

What all share (format): cell-based
Test [1] deals with T1, PLK1 (Homo sapiens, UniProt P53350).
T1 construct: endogenous in cells; host or cells: HeLa LgBit (Plk1-HiBit KI): HeLa cells stably expressing LgBit, with HiBit knocked into the endogenous Plk1 locus by CRISPR/Cas9
The test is described as follows: Luciferase assay for PLK1 in HeLa LgBit (Plk1-HiBit KI) cell line. The conditions noted are these: 300 nM compound, luminescence after 9 hours, read-out: Activity: ratio of the luminescense value of compound treatment group to DMSO treatment group. A digest of the protocol: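 Luminescence, followed in real time after adding compound at 300 nM and Endurazine substrate, is reported relative to DMSO-treated wells. Cells are a HeLa LgBit line with a Plk1-HiBit knock-in, synchronized by 2 mM thymidine for 24 h, released, and cultured 18 h before treatment.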

For test [2], the system named is NCI-H526 cell line. The test is described as follows: Cell viability assay for H526 cell line. The note with it: Homo sapiens, NCI-H526, 120 h; H526 cells, 5 days, EZ-Cytox, 3000 nM to 0.46 nM. A digest of the protocol: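 NCI-H526 cells exposed to compounds for 5 days in a CO2 incubator; viability read as absorbance at 450 nm after 3 min plate shaking; IC50 derived from treatment response.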

The subject of test [3] is MRC-5 cell line. The test is described as follows: Cell viability assay (cytotoxicity) for MRC-5 cell line. The note with it: Homo sapiens, MRC5, 120 h; MRC-5 normal cell line, 5 days, EZ-Cytox, 10000 nM to 1.52 nM; read-out: Activity: IC50 value to MRC-5 cell line (Exemplary Compounds). The method, then: 4. Cell Viability Assay for MRC-5 Cell Line
(1) Culture of MRC-5 Cell Line
Passage of cultured cells was maintained within P15.
(2) Treatment of Compounds of the Present Invention
Then, it was cultured in 37° C.
(3) Cytotoxicity Experiment
CO2 incubator for 4 hours.
Cell Viability Assay for MRC-5 cell line

T1 sequence (P53350 whole entry): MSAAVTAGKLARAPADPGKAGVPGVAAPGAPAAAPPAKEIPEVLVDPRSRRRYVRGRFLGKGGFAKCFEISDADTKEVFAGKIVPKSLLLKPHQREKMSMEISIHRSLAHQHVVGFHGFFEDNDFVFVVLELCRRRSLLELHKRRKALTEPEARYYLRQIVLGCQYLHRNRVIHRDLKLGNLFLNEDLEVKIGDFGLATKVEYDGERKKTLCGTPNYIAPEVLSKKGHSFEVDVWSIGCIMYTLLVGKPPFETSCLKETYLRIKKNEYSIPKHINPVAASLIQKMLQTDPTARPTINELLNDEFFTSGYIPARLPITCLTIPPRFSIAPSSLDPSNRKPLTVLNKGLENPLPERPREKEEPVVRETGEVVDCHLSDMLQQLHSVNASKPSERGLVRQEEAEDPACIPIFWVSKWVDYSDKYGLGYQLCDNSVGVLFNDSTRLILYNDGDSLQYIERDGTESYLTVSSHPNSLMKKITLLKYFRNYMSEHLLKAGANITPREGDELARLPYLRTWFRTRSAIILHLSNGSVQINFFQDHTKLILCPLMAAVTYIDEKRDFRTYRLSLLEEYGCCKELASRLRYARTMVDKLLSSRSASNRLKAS

Usually pIC50 stands for the negative decadic logarithm of the IC50, by convention in mol/L. As for `COc1cc(C(=O)NC2CCN(CC3CC4(CCN(c5ccc(C6CCC(=O)NC6=O)cc5F)CC4)C3)CC2)ccc1Nc1ncc2c(n1)N(C1CCCC1)CC(F)(F)C(=O)N2C` (stereo not drawn) [Compound 21, 4-((9-cyclopentyl-7,7-difluoro-5-methyl-6-oxo-6,7,8,9-tetrahydro-5H-pyrimido[4,5-b][1,4]diazepin-2-yl)amino)-N-(1-((7-(4-(2,6-dioxopiperidin-3-yl)-2-fluorophenyl)-7-azaspiro[3.5]nonan-2-yl)methyl)piperidin-4-yl)-3-methoxybenzamide], in test [1], the remaining activity at 0.3 µM is less than 30%. Moreover, the pIC50 in test [2] was more than 7.30; in test [3], less than 5.00.

Regarding `COc1cc(C(=O)NC2CCN(C(=O)CCCOc3cccc(C4CCC(=O)NC4=O)n3)CC2)ccc1Nc1ncc2c(n1)N(C1CCCC1)CC(F)(F)C(=O)N2C` (stereo not drawn) [Compound 35, 4-((9-cyclopentyl-7,7-difluoro-5-methyl-6-oxo-6,7,8,9-tetrahydro-5H-pyrimido[4,5-b][1,4]diazepin-2-yl)amino)-N-(1-(4-((6-(2,6-dioxopiperidin-3-yl)pyridin-2-yl)oxy)butanoyl)piperidin-4-yl)-3-methoxybenzamide], in test [1], the remaining activity at 0.3 µM was less than 60%. Moreover, the figures for the pIC50 in test [2] and in test [3] were more than 7.30 and less than 5.00, respectively.

Take `COc1cc(C(=O)NC2CCN(C(=O)CCCOc3cccc(C4CCC(=O)NC4=O)c3)CC2)ccc1Nc1ncc2c(n1)N(C1CCCC1)CC(F)(F)C(=O)N2C` (stereo not drawn) [Compound 4, 4-((9-cyclopentyl-7,7-difluoro-5-methyl-6-oxo-6,7,8,9-tetrahydro-5H-pyrimido[4,5-b][1,4]diazepin-2-yl)amino)-N-(1-(4-(3-(2,6-dioxopiperidin-3-yl)phenoxy)butanoyl)piperidin-4-yl)-3-methoxybenzamide]: the remaining activity at 0.3 µM in test [1] is less than 30%. For the same compound, the pIC50 is more than 7.30 in test [2] and less than 5.00 in test [3].

On to `COc1cc(C(=O)NCC2CCN(CC3CCN(c4ccc(C5CCC(=O)NC5=O)cc4F)CC3)CC2)ccc1Nc1ncc2c(n1)N(C1CCCC1)CC(F)(F)C(=O)N2C` (stereo not drawn) [Compound 22, 4-((9-cyclopentyl-7,7-difluoro-5-methyl-6-oxo-6,7,8,9-tetrahydro-5H-pyrimido[4,5-b][1,4]diazepin-2-yl)amino)-N-((1-((1-(4-(2,6-dioxopiperidin-3-yl)-2-fluorophenyl)piperidin-4-yl)methyl)piperidin-4-yl)methyl)-3-methoxybenzamide], for which the remaining activity at 0.3 µM in test [1] is less than 30%. The values for the pIC50 in test [2] and in test [3] were more than 7.52 and less than 5.00, respectively.

Consider `COc1cc(C(=O)NC2CCC(CN(C)C3CCN(c4ccc(C5CCC(=O)NC5=O)cc4F)CC3)CC2)ccc1Nc1ncc2c(n1)N(C1CCCC1)CC(F)(F)C(=O)N2C` (stereo not drawn) [Compound 8, 4-((9-cyclopentyl-7,7-difluoro-5-methyl-6-oxo-6,7,8,9-tetrahydro-5H-pyrimido[4,5-b][1,4]diazepin-2-yl)amino)-N-((1r,4r)-4-(((1-(4-(2,6-dioxopiperidin-3-yl)-2-fluorophenyl)piperidin-4-yl)(methyl)amino)methyl)cyclohexyl)-3-methoxybenzamide], for which the remaining activity at 0.3 µM in test [1] was less than 30%. Moreover, the pIC50 was more than 7.52 in test [2] and less than 5.00 in test [3].

Take `COc1cc(C(=O)NC2CCCN(C(=O)CCN3CCN(c4ccc(C5CCC(=O)NC5=O)cc4F)CC3)C2)ccc1Nc1ncc2c(n1)N(C1CCCC1)CC(F)(F)C(=O)N2C` (stereo not drawn) [Compound 14, 4-((9-cyclopentyl-7,7-difluoro-5-methyl-6-oxo-6,7,8,9-tetrahydro-5H-pyrimido[4,5-b][1,4]diazepin-2-yl)amino)-N-(1-(3-(4-(4-(2,6-dioxopiperidin-3-yl)-2-fluorophenyl)piperazin-1-yl)propanoyl)piperidin-3-yl)-3-methoxybenzamide]: the remaining activity at 0.3 µM in test [1] was less than 60%. In addition, the pIC50 in test [2] is more than 7.00; in test [3], less than 5.00.
